Holding throughout (format): cell-based
In assay [1] the target is T1, human somatostatin receptor subtype 2 (Homo sapiens, UniProt P30874).
T1 construct: expressed in transfected cells
The assay can be described thus: Functional assay for SSTR2 agonists (HTRF cAMP). As to conditions: CHO-K1 cells stably expressing human SST2; NKH477-stimulated cAMP; 20 min at 37 C; read-out: hSST2 cAMP Avg EC50. The source says: General overview: All five SSTR subtypes are Gi coupled G-protein coupled receptors (GPCRs) that lead to decreases in intracellular cyclic AMP (cAMP) when activated by an agonist. Therefore, measurement of intracellular cAMP levels can be used to assess whether compounds of the invention are agonists of SSTR subtypes (John Kelly, Troy Stevens, W. Joseph Thompson, and Roland Seifert, Current Protocols in Pharmacology. 2005, 2.2.1-2.2). One example of an intracellular cAMP assay is described below.
Four days prior to the assay, 2,000 Chinese hamster ovary cells (CHO-K1, ATCC #CCL-61) stably expressing the human somatostatin receptor subtype 2 are plated in each well of a 96-well tissue culture-treated plate in Ham's F12 growth media (ThermoFisher #10-080-CM) supplemented with 10% donor bovine serum (Gemini Bio-Products #100-506), 100 U/mL penicillin; 100 ug/mL streptomycin, 2 mM L-glutamine (Gemini Bio-Products #400-110) and 0.2 mg/mL hygromycin B (GoldBio #31282-04-9). The cells are cultured at 37° C., 5% CO2 and 95% humidity. cAMP is measured with HTRF dynamic cAMP assay (Cisbio. #62AM5PEJ) per manufacturer's instructions. […] The cells are incubated for 20 minutes at 37° C. (the final concentration of the compounds of the invention are typically 0-10,000 nM). The cells are treated with 50 μL of lysis buffer (HRTF cAMP kit, Cisbio) and incubated at room temperature for 30 minutes with rotary shaking at 600 rpm, and then diluted with 150 μL of stimulation buffer and shaken for an additional five minutes at 300 rpm. The lysate is transferred to 384-well plates and incubated for 1-24 hours at room temperature, and cAMP accumulation is detected by d2-labeled cAMP and Anti-cAMP-Cryptate. The time-resolved fluorescent signal is read using a m1000 Pro (Tecan) or CLARIOStar (BMG Labtech) microplate reader, where the samples are excited with light at 340 nm and emission light is measured at 620 nm and 665 nm. The data is expressed as a calculation of the fluorescence ratio (665 nm/620 nm). The intracellular cAMP concentrations are calculated by regression to a standard curve and are plotted vs, the concentration of the compounds of the invention. The EC50 of the compounds are calculated using standard methods. All data manipulations are in GraphPad Prism v9 (GraphPad, San Diego, CA).
On the technique in general: TR-FRET usually uses a lanthanide donor and a delayed reading to cut background.

The target in the next assay is T2, SST2 (Homo sapiens, UniProt P30874).
T2 construct: host or cells: PathHunter CHO-K1 SST2 cells
T2 sequence (P30874 whole entry): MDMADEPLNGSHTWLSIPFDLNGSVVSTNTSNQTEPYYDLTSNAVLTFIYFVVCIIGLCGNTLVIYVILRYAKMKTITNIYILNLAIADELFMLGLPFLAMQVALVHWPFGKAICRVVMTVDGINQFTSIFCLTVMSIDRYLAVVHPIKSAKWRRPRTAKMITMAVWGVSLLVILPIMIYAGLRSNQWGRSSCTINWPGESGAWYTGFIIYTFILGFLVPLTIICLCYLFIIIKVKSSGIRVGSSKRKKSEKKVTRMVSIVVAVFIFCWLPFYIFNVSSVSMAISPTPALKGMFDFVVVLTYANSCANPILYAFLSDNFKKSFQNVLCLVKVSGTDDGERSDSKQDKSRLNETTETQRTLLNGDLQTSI
The assay can be described thus: PathHunter CHO-K1 SST2 Internalization Assay. The conditions noted are these: PathHunter CHO-K1 SST2 cells; 90 min at 37 C; luminescence; read-out: Internalization EC50. The procedure: NDCs of the present invention were assessed in vitro using the human PathHunter CHO-K1 SST2 β-arrestin2 and PathHunter CHO-K1 SST2 Internalization Assays from DiscoverX. The CHO-K cells were seeded in 20 μLs of cell culture medium in a white-walled 384 well tissue culture-compatible plate at a density of 2500 cells/well. After a 48-hour incubation, cells were treated with 5 μLs of a 1:3 serially diluted SST2 NDC prepared at 5× concentration with a final top compound concentration of 10 uM for 90 min at 37 C and in 5% CO2. 11 dilutions were tested as well as one treatment that was compound free. After incubation, the media containing treatments were discarded and 20 μL of a working solution of Beta-Glo from Promega Beta-Go Assay System was added to each well. The plate was then incubated for 60 min at room temperature in the dark. Luminescence was measured using a Tecan plate reader. IC50 curves were generated using the nonlinear regression analysis (four-parameters) with GraphPad Prism 9. Results were the average of duplicates and are corrected for background.

For assay [2], the system named is NCI-H524 human small cell lung cancer cells. As to the kind of experiment: H524 assay: inhibition of cell proliferation (CellTiter Glo). As to conditions: 2 h treatment, washout, additional 70 h incubation. On the procedure: NDCs of the present invention were assessed in an in vitro assay evaluating the inhibition of cell proliferation. NCI-H524 (ATCC) human small cell lung cancer cells were plated in 96-well V-bottom plates (Costar) at a concentration of 5,000 cells/well. 24 h later, the cells were treated for 2 h with a NDC. NDC starting dose was 1 uM and two-fold serial dilutions were done for a total of 11 points. After 2 h of treatment, cells were spun down, and the drug-containing media was removed, and fresh complete media was added and used to resuspend the cells, which were spun again. After removal of the media, the cells were resuspended in complete medium and incubated for an additional 70 h. Cell proliferation was assessed using the CellTiter Glo Assay according to the standard protocol (Promega). Luminescence was measured using a TECAN plate reader. Percent proliferation inhibition was calculated using the following formula: % inhibition=(Luminescence Control−Luminescence Treatment)/Luminescence Control*100. IC50 curves were generated using the nonlinear regression analysis (four-parameter) with GraphPad Prism 9.
For orientation: ATP-based viability assays read luminescence as a measure of living cells.

T1 sequence (P30874 whole entry): as above

What is called EC50 is the concentration that produces a half-maximal response. Regarding `CC[C@H](C)[C@@H]([C@@H](CC(=O)N1CCC[C@H]1[C@H](OC)[C@@H](C)C(=O)N[C@H](C)[C@@H](O)c1ccccc1)OC)N(C)C(=O)[C@@H](NC(=O)[C@H](C(C)C)N(C)C(=O)OCc1ccc(NC(=O)[C@H](CCCNC(N)=O)NC(=O)[C@@H](NC(=O)C[C@@H](N)C(=O)NCCOCCC(=O)NCCNc2ncc(-c3cc(C)cc(F)c3)c(N3CCC(N)CC3)c2-c2nc3ccc(Cl)cc3[nH]2)C(C)C)c(O[C@@H](C)C(=O)O)c1)C(C)C` [Compound 200], the EC50 was 0.18 nM in assay [1], 3.9 nM on SST2 and 23 nM in assay [2].

`CC[C@@H](C)[C@H]([C@H](CC(=O)N1CCCC1[C@@H](OC)[C@H](C)C(=O)N[C@@H](C)[C@H](O)c1ccccc1)OC)N(C)C(=O)[C@H](NC(=O)[C@@H](C(C)C)N(C)C(=O)OCc1ccc(NC(=O)[C@H](C)NC(=O)[C@H](NC(=O)CCOCCC(=O)NCCNc2ncc(-c3cc(C)cc(F)c3)c(N3CCC(N)CC3)c2-c2nc3ccc(Cl)cc3[nH]2)C(C)C)c(O[C@H]2O[C@@H](C(=O)O)[C@H](O)[C@@H](O)[C@@H]2O)c1)C(C)C` (stereo partly drawn) [Compound 240]: the EC50 in assay [1] turned out to be 0.12 nM; at SST2 it was 6 nM; in assay [2] it was 3100 nM.

Turning to `CC[C@H](C)[C@@H]([C@@H](CC(=O)N1CCC[C@H]1[C@H](OC)[C@@H](C)C(=O)N[C@H](C)[C@@H](O)c1ccccc1)OC)N(C)C(=O)[C@@H](NC(=O)[C@H](C(C)C)N(C)C(=O)OCc1ccc(NC(=O)[C@H](CCCNC(N)=O)NC(=O)[C@@H](NC(=O)c2cc(NC(=O)CCOCCC(=O)NCCNc3ncc(-c4cc(C)cc(F)c4)c(N4CCC(N)CC4)c3-c3nc4ccc(Cl)cc4[nH]3)cc(C(=O)NCC(=O)O)c2)C(C)C)cc1)C(C)C` [Compound 149], the EC50 was found to be 0.033 nM in assay [1], 12 nM at SST2 and 100 nM in assay [2].

Consider `CC[C@H](C)[C@@H]([C@@H](CC(=O)N1CCC[C@H]1[C@H](OC)[C@@H](C)C(=O)N[C@H](C)[C@@H](O)c1ccccc1)OC)N(C)C(=O)[C@@H](NC(=O)[C@H](C(C)C)N(C)C(=O)OCc1ccc(NC(=O)[C@H](CCCNC(N)=O)NC(=O)[C@@H](NC(=O)c2cc(NCCOCCC(=O)NCCNc3ncc(-c4cc(C)cc(F)c4)c(N4CCC(N)CC4)c3-c3nc4ccc(Cl)cc4[nH]3)cc(C(=O)NCCS(=O)(=O)O)c2)C(C)C)cc1)C(C)C` [Compound 187], for which the EC50 was 0.5 nM in assay [1], 3.7 nM at SST2 and 1800 nM in assay [2].

`CC[C@H](C)[C@@H]([C@@H](CC(=O)N1CCC[C@H]1[C@H](OC)[C@@H](C)C(=O)N[C@H](C)[C@@H](O)c1ccccc1)OC)N(C)C(=O)[C@@H](NC(=O)[C@H](C(C)C)N(C)C(=O)OCc1ccc(NC(=O)[C@H](CCCNC(N)=O)NC(=O)[C@@H](NC(=O)CCOCCC(=O)NCCNc2ncc(-c3cc(C)cc(F)c3)c(N3CCC(N)CC3)c2-c2nc3ccc(Cl)cc3[nH]2)C(C)C)c(O[C@@H]2O[C@H](C(=O)N(C)CCOCCC(=O)O)[C@@H](O)[C@H](O)[C@H]2O)c1)C(C)C` [Compound 231]: the concentration for a half-maximal effect (EC50) in assay [1] stood at 0.33 nM; at SST2, 12 nM; in assay [2], 49 nM.

Take `CC[C@H](C)[C@@H]([C@@H](CC(=O)N1CCC[C@H]1[C@H](OC)[C@@H](C)C(=O)N[C@H](C)[C@@H](O)c1ccccc1)OC)N(C)C(=O)[C@@H](NC(=O)[C@H](C(C)C)N(C)C(=O)OCc1ccc(NC(=O)[C@H](C)NC(=O)[C@@H](NC(=O)CCOCCOCCOCCOCCC(=O)NCCNc2ncc(-c3cc(C)cc(F)c3)c(N3CCC(N)CC3)c2-c2cc3ccc(Cl)cc3[nH]2)C(C)C)c(O[C@@H]2O[C@H](C(=O)O)[C@@H](O)[C@H](O)[C@H]2O)c1)C(C)C` [Compound 112]: the half-maximal effective concentration (EC50) was 0.12 nM in assay [1], 8.4 nM at SST2 and 10 nM in assay [2].

Take `CC[C@H](C)[C@@H]([C@@H](CC(=O)N1CCC[C@H]1[C@H](OC)[C@@H](C)C(=O)N[C@H](C)[C@@H](O)c1ccccc1)OC)N(C)C(=O)[C@@H](NC(=O)[C@H](C(C)C)N(C)C(=O)OCc1ccc(NC(=O)[C@H](CCCNC(N)=O)NC(=O)[C@@H](NC(=O)C[C@@H](N)C(=O)NCCOCCNC(=O)c2cc(NCCOCCC(=O)NCCNc3ncc(-c4cc(C)cc(F)c4)c(N4CCC(N)CC4)c3-c3nc4ccc(Cl)cc4[nH]3)cc(C(=O)NCC(=O)O)c2)C(C)C)cc1)C(C)C` [Compound 163]: the concentration for a half-maximal effect (EC50) in assay [1] is 0.15 nM; on SST2, 6.3 nM; in assay [2], 67 nM.

With `CC[C@H](C)[C@@H]([C@@H](CC(=O)N1CCC[C@H]1[C@H](OC)[C@@H](C)C(=O)N[C@H](C)[C@@H](O)c1ccccc1)OC)N(C)C(=O)[C@@H](NC(=O)[C@H](C(C)C)N(C)C(=O)OCc1ccc(NC(=O)[C@H](CCCNC(N)=O)NC(=O)[C@@H](NC(=O)c2cc(NCCOCCC(=O)NCCNc3ncc(-c4cc(C)cc(F)c4)c(N4CCC(N)CC4)c3-c3nc4ccc(Cl)cc4[nH]3)cc(C(=O)NCCN(CC(=O)O)CC(=O)O)c2)C(C)C)cc1)C(C)C` [Compound 189], the EC50 in assay [1] worked out at 0.4 nM; at SST2 it was 7.6 nM; in assay [2] it was 2200 nM.

Turning to `CC[C@H](C)[C@@H]([C@@H](CC(=O)N1CCC[C@H]1[C@H](OC)[C@@H](C)C(=O)N[C@H](C)[C@@H](O)c1ccccc1)OC)N(C)C(=O)[C@@H](NC(=O)[C@H](C(C)C)N(C)C(=O)OCc1ccc(NC(=O)[C@H](CCCNC(N)=O)NC(=O)[C@@H](NC(=O)[C@H](CCC(=O)O)NC(=O)CCOCCOCCOCCOCCC(=O)NCCNc2ncc(-c3cc(C)cc(F)c3)c(N3CCC(N)CC3)c2-c2nc3ccc(Cl)cc3[nH]2)C(C)C)cc1C(=O)N1CC(N)C1)C(C)C` [Compound 65], the EC50 turned out to be 0.074 nM in assay [1], 3.4 nM on SST2 and 17 nM in assay [2].

Take `CC[C@H](C)[C@@H]([C@@H](CC(=O)N1CCC[C@H]1[C@H](OC)[C@@H](C)C(=O)N[C@H](C)[C@@H](O)c1ccccc1)OC)N(C)C(=O)[C@@H](NC(=O)[C@H](C(C)C)N(C)C(=O)OCc1ccc(NC(=O)[C@H](CCCNC(N)=O)NC(=O)[C@@H](NC(=O)c2cc(NCCOCCC(=O)NCCNc3ncc(-c4cc(C)cc(F)c4)c(N4CCC(N)CC4)c3-c3nc4ccc(F)cc4[nH]3)cc(C(=O)NCC(=O)O)c2)C(C)C)cc1)C(C)C` [Compound 165]: the figures for the EC50 (in assay [1]; on SST2; in assay [2]) were 0.5 nM, 10 nM and 90 nM, respectively.

On to `CC[C@H](C)[C@@H]([C@@H](CC(=O)N1CCC[C@H]1[C@H](OC)[C@@H](C)C(=O)N[C@H](C)[C@@H](O)c1ccccc1)OC)N(C)C(=O)[C@@H](NC(=O)[C@H](C(C)C)N(C)C(=O)OCc1ccc(NC(=O)[C@H](CCCNC(N)=O)NC(=O)[C@@H](NC(=O)c2cc(C(=O)NCC(=O)O)cc(N(C)CCOCCC(=O)NCCNc3ncc(-c4cc(C)cc(F)c4)c(N4CCC(N)CC4)c3-c3nc4ccc(Cl)cc4[nH]3)c2)C(C)C)cc1)C(C)C` [Compound 158], for which the EC50 in assay [1] turned out to be 0.15 nM; on SST2 it was 5.1 nM; in assay [2], 40 nM.

The values are drawn from patent publication US20260007758A1, “SO[…]-2 RECEPTOR (SST2R) NON-PEPTIDE DRUG CONJUGATES AND USES THEREOF” (Crinetics Pharmaceuticals, Inc., priority 2024, published 2026).
